Patent US5698522A, “6-position modified decapeptide LHRH antagonists” (Abbott Laboratories, priority 1995, dated 1997)
*1 amine or outer side, *2 acyl side, *3 side chain or, on linkers, in order; H or OH if unused. Where a SMILES comes first, the peptide text is derived from it. Side-chain parts run from the residue outwards. [ ]: non-standard residue; d: D form. The star is where a group is joined. NMePhe(4-NH(5-NH2-Trz-3-yl)) = CN[C@@H](Cc1ccc(Nc2n[nH]c(N)n2)cc1)C(=O)O; Shikimoyl = O=C(C1=C[C@@H](O)[C@@H](O)[C@H](O)C1)*; Quinoline3carbonyl = O=C(c1cnc2ccccc2c1)*; dPhe(4-Cl) = N[C@H](Cc1ccc(Cl)cc1)C(=O)O; d2Nal = N[C@H](Cc1ccc2ccccc2c1)C(=O)O; Lys(iPr) = CC(C)NCCCC[C@H](N)C(=O)O; NMeY = CN[C@@H](Cc1ccc(O)cc1)C(=O)O; Ethylenediamine = C(CN[*:2])N[*:1]; d3Pal = N[C@H](Cc1cccnc1)C(=O)O; Salicyloyl = O=C(c1ccccc1O)*; Nicotinoyl = O=C(c1cccnc1)*; 2Furoyl = O=C(c1ccco1)*; CO = O=C([*:1])[*:2]; GABA = NCCCC(=O)O; azaGly = NNC(=O)O; Sar = CNCC(=O)O

Biological target: T1, LHRH receptor (Rattus norvegicus, UniProt P30969)
T1 construct: endogenous in cells
T1 sequence (P30969 1-327): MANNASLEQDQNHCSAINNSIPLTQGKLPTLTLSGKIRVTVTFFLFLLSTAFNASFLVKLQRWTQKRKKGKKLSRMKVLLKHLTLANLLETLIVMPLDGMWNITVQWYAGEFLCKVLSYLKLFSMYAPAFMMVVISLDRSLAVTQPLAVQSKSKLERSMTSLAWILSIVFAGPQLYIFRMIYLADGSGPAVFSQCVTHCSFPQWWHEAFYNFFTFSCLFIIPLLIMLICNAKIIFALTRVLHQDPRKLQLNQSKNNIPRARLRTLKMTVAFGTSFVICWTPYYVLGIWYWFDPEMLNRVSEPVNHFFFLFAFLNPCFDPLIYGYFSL
Assay: in vitro LHRH antagonist potency (pA2) against the agonist leuprolide
Format: cell-based
Conditions: negative logarithm of the antagonist concentration which shifts the response curve produced by the agonist leuprolide to two-fold higher concentration
Outline: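 Functional antagonism against the agonist leuprolide. pA2 is the negative log of antagonist concentration that shifts the leuprolide response curve to twofold higher concentration.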

Compound | Kb [pM]
CC(=O)N[C@H](Cc1ccc2ccccc2c1)C(=O)N[C@H](Cc1ccc(Cl)cc1)C(=O)N[C@H](Cc1cccnc1)C(=O)N[C@@H](CO)C(=O)N(C)[C@@H](Cc1ccc(O)cc1)C(=O)N[C@H](CCCCNC(=O)[C@@H](CO)NC(=O)CNC(=O)c1cccnc1)C(=O)N[C@@H](CC(C)C)C(=O)N[C@@H](CCCNC(=N)N)C(=O)N1CCC[C@H]1C(=O)N[C@H](C)C(N)=O [Example 48k, NAc-D2Nal^1 -D4ClPhe^2 -D3Pal^3 -Ser^4 -NMeTyr^5 -DLys(N-epsilon-D-Ser-Gly-Nicotinyl)^6 -Leu^7 -Arg^8 -Pro^9 -DAla^10 NH2] (Ac-[d2Nal][dPhe(4-Cl)][d3Pal]S[NMeY][dK]([dS-Gly-Nicotinoyl])LRP[dA]-NH2) | 17
CC(=O)N[C@H](Cc1ccc2ccccc2c1)C(=O)N[C@H](Cc1ccc(Cl)cc1)C(=O)N[C@H](Cc1cccnc1)C(=O)N[C@@H](CO)C(=O)N(C)[C@@H](Cc1ccc(O)cc1)C(=O)N[C@H](CCCCNC(=O)NNC(=O)c1ccco1)C(=O)N[C@@H](CC(C)C)C(=O)N[C@@H](CCCCNC(C)C)C(=O)N1CCC[C@H]1C(=O)N(C)CC(N)=O [Example 59, NAc-D2Nal^1 -D4ClPhe^2 -D3Pal^3 -Ser^4 -NMeTyr^5 -DLys(N-epsilon-Azagly-Fur-2-oyl)^6 -Leu^7 -Lys(N-epsilon-Isopropyl)^8 -Pro^9 -Sar^10 NH2] (Ac-[d2Nal][dPhe(4-Cl)][d3Pal]S[NMeY][dK]([azaGly-2Furoyl])L[Lys(iPr)]P[Sar]-NH2) | 36.3
CC(=O)N[C@H](Cc1ccc2ccccc2c1)C(=O)N[C@H](Cc1ccc(Cl)cc1)C(=O)N[C@H](Cc1cccnc1)C(=O)N[C@@H](CO)C(=O)N(C)[C@@H](Cc1ccc(O)cc1)C(=O)N[C@H](CCCCNC(=O)[C@@H](Cc1cccnc1)NC(=O)C1=C[C@@H](O)[C@@H](O)[C@H](O)C1)C(=O)N[C@@H](CC(C)C)C(=O)N[C@@H](CCCNC(=N)N)C(=O)N1CCC[C@H]1C(=O)N[C@H](C)C(N)=O [Example 38f, NAc-D2Nal^1 -D4ClPhe^2 -D3Pal^3 -Ser^4 -NMeTyr^5 -DLys(N-epsilon-D3Pal-Shikimyl)^6 -Leu^7 -Arg^8 -Pro^9 -DAla^10 NH2] (Ac-[d2Nal][dPhe(4-Cl)][d3Pal]S[NMeY][dK]([d3Pal-Shikimoyl])LRP[dA]-NH2) | 21.4
CC(=O)N[C@H](Cc1ccc2ccccc2c1)C(=O)N[C@H](Cc1ccc(Cl)cc1)C(=O)N[C@H](Cc1cccnc1)C(=O)N[C@@H](CO)C(=O)N(C)[C@@H](Cc1ccc(O)cc1)C(=O)N[C@H](CCCCNC(=O)NNC(=O)c1cccnc1)C(=O)N[C@@H](CC(C)C)C(=O)N[C@@H](CCCNC(=N)N)C(=O)N1CCC[C@H]1C(=O)N[C@H](C)C(N)=O [Example 37b, NAc-D2Nal^1 -D4ClPhe^2 -D3Pal^3 -Ser^4 -NMeTyr^5 -DLys(N-epsilon-Azagly-Nicotinyl)^6 -Leu^7 -Arg^8 -Pro^9 -DAla^10 NH2] (Ac-[d2Nal][dPhe(4-Cl)][d3Pal]S[NMeY][dK]([azaGly-Nicotinoyl])LRP[dA]-NH2) | 5.62
CC(=O)N[C@H](Cc1ccc2ccccc2c1)C(=O)N[C@H](Cc1ccc(Cl)cc1)C(=O)N[C@H](Cc1cccnc1)C(=O)N[C@@H](CO)C(=O)N(C)[C@@H](Cc1ccc(O)cc1)C(=O)N[C@H](CCCCNC(=O)CN(C)C(=O)C1=C[C@@H](O)[C@@H](O)[C@H](O)C1)C(=O)N[C@@H](CC(C)C)C(=O)N[C@@H](CCCNC(=N)N)C(=O)N1CCC[C@H]1C(=O)N[C@H](C)C(N)=O [Example 48f, NAc-D2Nal^1 -D4ClPhe^2 -D3Pal^3 -Ser^4 -NMeTyr^5 -DLys(N-epsilon-Sar-Shikimyl)^6 -Leu^7 -Arg^8 -Pro^9 -DAla^10 NH2] (Ac-[d2Nal][dPhe(4-Cl)][d3Pal]S[NMeY][dK]([Sar-Shikimoyl])LRP[dA]-NH2) | 12.6
CC(=O)N[C@H](Cc1ccc2ccccc2c1)C(=O)N[C@H](Cc1ccc(Cl)cc1)C(=O)N[C@H](Cc1cccnc1)C(=O)N[C@@H](CO)C(=O)N(C)[C@@H](Cc1ccc(O)cc1)C(=O)N[C@H](CCCCNC(=O)NCCNC(=O)C1=C[C@@H](O)[C@@H](O)[C@H](O)C1)C(=O)N[C@@H](CC(C)C)C(=O)N[C@@H](CCCNC(=N)N)C(=O)N1CCC[C@H]1C(=O)N[C@H](C)C(N)=O [Example 15, NAc-D2Nal^1 -D4ClPhe^2 -D3Pal^3 -Ser^4 -NMeTyr^5 -DLys[N-epsilon-(N'-Carbonyl-Diaminoethane-N"-Shikimyl)]^6 -Leu^7 -Arg^8 -Pro^9 -DAla^10 NH2] (Ac-[d2Nal][dPhe(4-Cl)][d3Pal]S[NMeY][dK]([CO-Ethylenediamine-Shikimoyl])LRP[dA]-NH2) | 2.82
CC(=O)N[C@H](Cc1ccc2ccccc2c1)C(=O)N[C@H](Cc1ccc(Cl)cc1)C(=O)N[C@H](Cc1cccnc1)C(=O)N[C@@H](CO)C(=O)N(C)[C@@H](Cc1ccc(Nc2n[nH]c(N)n2)cc1)C(=O)N[C@H](CCCCNC(=O)CNC(=O)c1cccnc1)C(=O)N[C@@H](CC(C)C)C(=O)N[C@@H](CCCCNC(C)C)C(=O)N1CCC[C@H]1C(=O)N[C@H](C)C(N)=O [Example 45, NAc-D2Nal^1 -D4ClPhe^2 -D3Pal^3 -Ser^4 -NMePhe(Atz)^5 -DLys(N-epsilon-Gly-Nicotinyl)^6 -Leu^7 -Lys(N-epsilon-Isopropyl)^8 -Pro^9 -DAla^10 NH2] (Ac-[d2Nal][dPhe(4-Cl)][d3Pal]S[NMePhe(4-NH(5-NH2-Trz-3-yl))][dK]([Gly-Nicotinoyl])L[Lys(iPr)]P[dA]-NH2) | 4.17
CC(=O)N[C@H](Cc1ccc2ccccc2c1)C(=O)N[C@H](Cc1ccc(Cl)cc1)C(=O)N[C@H](Cc1cccnc1)C(=O)N[C@@H](CO)C(=O)N(C)[C@@H](Cc1ccc(O)cc1)C(=O)N[C@H](CCCCNC(=O)CCCNC(=O)CNC(=O)c1ccco1)C(=O)N[C@@H](CC(C)C)C(=O)N[C@@H](CCCCNC(C)C)C(=O)N1CCC[C@H]1C(=O)N[C@H](C)C(N)=O [Example 57e, NAc-D2Nal^1 -D4ClPhe^2 -D3Pal^3 -Ser^4 -NMeTyr^5 -DLys(N-epsilon-4-aminobutyryl-glycyl-furoyl)^6 -Leu^7 -Lys(Isp)^8 -Pro^9 -DAla^10 NH2] (Ac-[d2Nal][dPhe(4-Cl)][d3Pal]S[NMeY][dK]([GABA-Gly-2Furoyl])L[Lys(iPr)]P[dA]-NH2) | 12
CC(=O)N[C@H](Cc1ccc2ccccc2c1)C(=O)N[C@H](Cc1ccc(Cl)cc1)C(=O)N[C@H](Cc1cccnc1)C(=O)N[C@@H](CO)C(=O)N(C)[C@@H](Cc1ccc(O)cc1)C(=O)N[C@H](CCCCNC(=O)[C@@H](CO)NC(=O)c1cccnc1)C(=O)N[C@@H](CC(C)C)C(=O)N[C@@H](CCCNC(=N)N)C(=O)N1CCC[C@H]1C(=O)N[C@H](C)C(N)=O [Example 7, NAc-D2Nal^1 -D4ClPhe^2 -D3Pal^3 -Ser^4 -NMeTyr^5 -DLys(N-epsilon-DSer-Nicotinyl)^6 -Leu^7 -Arg^8 -Pro^9 -DAla^10 NH2] (Ac-[d2Nal][dPhe(4-Cl)][d3Pal]S[NMeY][dK]([dS-Nicotinoyl])LRP[dA]-NH2) | 8.91
CC(=O)N[C@H](Cc1ccc2ccccc2c1)C(=O)N[C@H](Cc1ccc(Cl)cc1)C(=O)N[C@H](Cc1cccnc1)C(=O)N[C@@H](CO)C(=O)N(C)[C@@H](Cc1ccc(O)cc1)C(=O)N[C@H](CCCCNC(=O)[C@@H](Cc1c[nH]cn1)NC(=O)C1=C[C@@H](O)[C@@H](O)[C@H](O)C1)C(=O)N[C@@H](CC(C)C)C(=O)N[C@@H](CCCNC(=N)N)C(=O)N1CCC[C@H]1C(=O)N[C@H](C)C(N)=O [Example 38e, NAc-D2Nal^1 -D4ClPhe^2 -D3Pal^3 -Ser^4 -NMeTyr^5 -DLys(N-epsilon-DHis-Shikimyl)^6 -Leu^7 -Arg^8 -Pro^9 -DAla^10 NH2] (Ac-[d2Nal][dPhe(4-Cl)][d3Pal]S[NMeY][dK]([dH-Shikimoyl])LRP[dA]-NH2) | 43.7
CC(=O)N[C@H](Cc1ccc2ccccc2c1)C(=O)N[C@H](Cc1ccc(Cl)cc1)C(=O)N[C@H](Cc1cccnc1)C(=O)N[C@@H](CO)C(=O)N(C)[C@@H](Cc1ccc(O)cc1)C(=O)N[C@H](CCCCNC(=O)[C@@H](CO)NC(=O)c1cnc2ccccc2c1)C(=O)N[C@@H](CC(C)C)C(=O)N[C@@H](CCCNC(=N)N)C(=O)N1CCC[C@H]1C(=O)N[C@H](C)C(N)=O [Example 50d, NAc-D2Nal^1 -D4ClPhe^2 -D3Pal^3 -Ser^4 -NMeTyr^5 -DLys(N-epsilon-DSer-3-Quinolinyl)^6 -Leu^7 -Arg^8 -Pro^9 -DAla^10 NH2] (Ac-[d2Nal][dPhe(4-Cl)][d3Pal]S[NMeY][dK]([dS-Quinoline3carbonyl])LRP[dA]-NH2) | 47.9
CC(=O)N[C@H](Cc1ccc2ccccc2c1)C(=O)N[C@H](Cc1ccc(Cl)cc1)C(=O)N[C@H](Cc1cccnc1)C(=O)N[C@@H](CO)C(=O)N(C)[C@@H](Cc1ccc(O)cc1)C(=O)N[C@H](CCCCNC(=O)[C@@H](Cc1cccnc1)NC(=O)C1=C[C@@H](O)[C@@H](O)[C@H](O)C1)C(=O)N[C@@H](CC(C)C)C(=O)N[C@@H](CCCNC(=N)N)C(=O)N1CCC[C@H]1C(=O)N[C@H](C)C(N)=O [Example 48i, NAc-D2Nal^1 -D4ClPhe^2 -D3Pal^3 -Ser^4 -NMeTyr^5 -DLys(N-epsilon-D-3Pal-Shikimyl)^6 -Leu^7 -Arg^8 -Pro^9 -DAla^10 NH2] (Ac-[d2Nal][dPhe(4-Cl)][d3Pal]S[NMeY][dK]([d3Pal-Shikimoyl])LRP[dA]-NH2) | 36.3
CC(=O)N[C@H](Cc1ccc2ccccc2c1)C(=O)N[C@H](Cc1ccc(Cl)cc1)C(=O)N[C@H](Cc1cccnc1)C(=O)N[C@@H](CO)C(=O)N(C)[C@@H](Cc1ccc(O)cc1)C(=O)N[C@H](CCCCNC(=O)NNC(=O)c1ccccc1O)C(=O)N[C@@H](CC(C)C)C(=O)N[C@@H](CCCCNC(C)C)C(=O)N1CCC[C@H]1C(=O)N[C@H](C)C(N)=O [Example 5c, NAc-D2Nal^1 -D4ClPhe^2 -D3Pal^3 -Ser^4 -NMeTyr^5 -DLys(N-epsilon-Azagly-Salicyl)^6 -Leu^7 -Lys(N-epsilon-Isopropyl)^8 -Pro^9 -DAla^10 NH2] (Ac-[d2Nal][dPhe(4-Cl)][d3Pal]S[NMeY][dK]([azaGly-Salicyloyl])L[Lys(iPr)]P[dA]-NH2) | 13.2
